Tests used:
RARβ [1] = target: T1, RARβ (Homo sapiens, UniProt P10826); assay: chimeric receptor transactivation assay, RARβ; assay type: cell-based; settings: for EC50: chimeric receptor transactivation, read-out: RAR Trans. EC50 β; for Emax: percentage compared to the standard compound, read-out: RAR Trans. efficacy (number in parentheses) β
T1 sequence (P10826 183-417 limits assumed): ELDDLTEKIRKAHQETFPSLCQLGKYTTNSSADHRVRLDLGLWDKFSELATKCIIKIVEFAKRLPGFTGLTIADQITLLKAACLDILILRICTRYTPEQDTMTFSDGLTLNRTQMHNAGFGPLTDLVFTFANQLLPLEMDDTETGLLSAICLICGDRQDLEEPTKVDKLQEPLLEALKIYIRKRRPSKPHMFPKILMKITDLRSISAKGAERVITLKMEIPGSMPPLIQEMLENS
Description: (§1) Specifically, one such assay is a chimeric receptor transactivation assay which tests for agonist-like activity in the R RAPE and RAR7 receptor subtypes, and which is based on work published by Feigner, P. L. and Holm, M (1989) Focus, 112 is described in detail in U.S. Pat. No. 5,455,265. The specification of U.S. Pat. No. 5,455,265 is hereby expressly incorporated by reference. A holoreceptor transactivation assay and a ligand binding assay which measure the antagonist/agonist like activity of the compounds of the invention, or their ability to bind to the several retinoid receptor subtypes, respectively, are described in published PCT Application No. WO WO93/11755 (particularly on pages 30-33 and 37-41) published on Jun. 24, 1993, the specification of which is also incorporated herein by reference. A detailed experimental procedure for holoreceptor transactivations has been described by Heyman et al. Cell 68, 397-406, (1992); Allegretto et al. J. Biol. Chem. 268, 26625-26633, and Mangelsdorf et al. The Retinoids: Biology, Chemistry and Medicine, pp 319-349, Raven Press Ltd., New York, which are expressly incorporated herein by reference. The results obtained in this assay are expressed in EC50 numbers, as they are also in the chimeric receptor transactivation assay. The results of the ligand binding assay are expressed in Ki numbers. (See Cheng et al. Biochemical Pharmacology Vol. 22 pp 3099-3108, expressly incorporated herein by reference.)
(§2) Efficacy in a transactivation assay is expressed as a percentage of the maximum potency attained by the compound compared to a standard which, in this case, is the compound named (2E,4E,1′S,2′S)-3-methyl-5-[2′-methyl-2′-(5,5,8,8-tetramethyl-5,6,7,8-tetrahydro-naphthalen-2-yl)-cyclopropyl]-penta-2,4-dienoic acid. This standard compound is described in U.S. Pat. No. 6,114,533.
(§3) The specification of this application for patent is organized in several sections in accordance with structural Formulas A through F each of which discloses a group of preferred compounds within the scope of the invention. Tables that disclose the activity of certain exemplary compounds of the invention in the above-described RXR receptor transactivation and binding assays are found in the corresponding sections. […] The transactivation data pertaining to the activation of RXR receptors were obtained in the holoreceptor assay.
(§4) Generally speaking, in the tables disclosing the results of transactivation and binding assays the numbers in parentheses indicate efficacy as a percentage compared to the standard compound, (2E,4E,1′S,2′S)-3-methyl-5-[2′-methyl-2′-(5,5,8,8-tetramethyl-5,6,7,8-tetrahydro-naphthalen-2-yl)cyclopropyl]-penta-2,4-dienoic acid and the other numbers indicate the measured EC50 and K; in nanomolar concentration.

RARβ [2] = target: T2, RARβ (Homo sapiens, UniProt P10826); assay: ligand binding assay, RARβ; settings: for Ki: read-out: RAR Bind. Ki β; for Kd: Table 9 (Formula F), read-out: RAR β Kd
T2 sequence (P10826 1-455): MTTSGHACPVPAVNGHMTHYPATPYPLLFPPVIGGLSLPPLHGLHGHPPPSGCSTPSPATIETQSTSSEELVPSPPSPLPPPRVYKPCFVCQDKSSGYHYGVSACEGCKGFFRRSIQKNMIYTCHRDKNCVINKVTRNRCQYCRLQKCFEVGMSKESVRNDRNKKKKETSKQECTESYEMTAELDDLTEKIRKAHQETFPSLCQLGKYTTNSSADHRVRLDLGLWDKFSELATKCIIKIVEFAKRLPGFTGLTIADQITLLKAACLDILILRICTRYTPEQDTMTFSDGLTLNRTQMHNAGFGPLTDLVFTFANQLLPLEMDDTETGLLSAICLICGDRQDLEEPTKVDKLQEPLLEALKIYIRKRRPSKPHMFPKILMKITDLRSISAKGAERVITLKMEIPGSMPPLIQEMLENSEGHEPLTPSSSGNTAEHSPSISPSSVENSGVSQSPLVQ
Summary of the method: (§5)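 Binding of compounds to several retinoid receptor subtypes was measured. Results are given as Ki values in nanomolar concentration, derived per Cheng et al.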

RARγ = target: T3, RARγ (Homo sapiens, UniProt P13631); assay: ligand binding assay, RARγ; settings: for Ki: read-out: RAR Bind. Ki γ; for Kd: Table 9 (Formula F), read-out: RAR γ Kd
T3 sequence (P13631 1-454): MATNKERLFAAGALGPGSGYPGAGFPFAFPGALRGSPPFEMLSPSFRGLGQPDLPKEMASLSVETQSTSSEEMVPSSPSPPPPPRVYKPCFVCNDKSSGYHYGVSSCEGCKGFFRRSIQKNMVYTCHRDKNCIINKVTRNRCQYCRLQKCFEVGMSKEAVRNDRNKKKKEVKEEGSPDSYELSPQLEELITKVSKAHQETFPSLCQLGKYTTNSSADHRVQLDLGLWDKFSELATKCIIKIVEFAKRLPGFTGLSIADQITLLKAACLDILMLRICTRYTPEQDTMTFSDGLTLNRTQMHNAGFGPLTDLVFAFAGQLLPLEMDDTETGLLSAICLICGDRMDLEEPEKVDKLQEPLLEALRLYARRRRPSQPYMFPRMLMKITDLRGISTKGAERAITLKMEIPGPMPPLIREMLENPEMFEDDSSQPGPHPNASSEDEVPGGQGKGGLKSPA
Summary of the method: as §5

RXRγ = target: T4, RXRγ (UniProt P28705); assay: holoreceptor transactivation assay, RXRγ; assay type: cell-based; settings: for EC50: holoreceptor transactivation, read-out: RXR Trans. EC50 γ; for RXR Trans. efficacy (number in parentheses) γ: percentage compared to the standard compound
T4 sequence (P28705 1-463): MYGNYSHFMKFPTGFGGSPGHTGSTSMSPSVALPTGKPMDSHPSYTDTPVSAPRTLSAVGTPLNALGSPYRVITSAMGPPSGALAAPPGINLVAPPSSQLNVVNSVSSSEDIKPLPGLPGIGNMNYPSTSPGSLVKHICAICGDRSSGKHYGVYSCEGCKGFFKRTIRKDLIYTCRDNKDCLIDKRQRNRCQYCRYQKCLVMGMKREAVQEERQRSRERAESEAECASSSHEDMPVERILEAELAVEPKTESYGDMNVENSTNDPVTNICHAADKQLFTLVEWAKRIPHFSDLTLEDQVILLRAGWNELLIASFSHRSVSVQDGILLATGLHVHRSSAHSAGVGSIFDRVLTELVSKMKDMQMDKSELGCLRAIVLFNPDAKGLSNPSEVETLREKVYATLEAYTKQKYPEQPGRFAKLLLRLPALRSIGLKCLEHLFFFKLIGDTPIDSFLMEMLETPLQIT
Description: as §1, §2, §3, §4

| Compound | EC50 (RARβ [1]) | Emax (RARβ [1]) | Ki (RARβ [2]) | Ki (RARγ) | EC50 (RXRγ) | RXR Trans. efficacy (number in parentheses) γ (RXRγ) | Kd (RARβ [2]) | Kd (RARγ) |
| --- | --- | --- | --- | --- | --- | --- | --- | --- |
| COc1cc2c(cc1\C(C)=C/C=C/C(C)=C/C(=O)O)C(C(C)C)=CC(C)(C)O2 [Compound 43, 7-(4-Isopropyl-7-methoxy-2,2-dimethyl-2H-chromen-6-yl)-3-methyl-octa-2E,4E,6Z-trienoic acid] | 0.057 µM | 37% | 0.378 µM | 2.5 µM | 0.003 µM | 95% | – | – |
| CCOc1cc2c(cc1\C(CC)=C(F)/C=C/C(C)=C/C(=O)O)C(CC)=CCC2(C)C [Compound A-78, (2E,4E,6E)-7-(3-Ethoxy-8-ethyl-5,5-dimethyl-5,6-dihydro-naphthalen-2-yl)-6-fluoro-3-methyl-nona-2,4,6-trienoic acid] | 0.043 µM | 68% | 0.477 µM | 2.2 µM | 0.004 µM | 11% | – | – |
| CCOc1cc2c(cc1\C(C)=C(F)/C=C/C(C)=C/C(=O)O)C(C)=CCC2(C)C | 0.316 µM | 26% | 0.359 µM | 1.2 µM | 0.003 µM | 70% | – | – |
| CCOc1c(\C(CC)=C(F)/C=C/C(C)=C/C(=O)O)cc2c(c1Br)C(C)(C)CC=C2C(C)CC (stereo not drawn) [Compound A-176, (2E,4E,6E)-7-(4-Bromo-8-sec-butyl-3-ethoxy-5,5-methyl-5,6-dihydro-naphthalen-2-yl)-6-fluoro-3-methyl-nona-2,4,6-trienoic acid] | 0.014 µM | 19% | – | – | 0.003 µM | 53% | 0.112 µM | 0.517 µM |
| CCOc1c(\C(CC)=C(F)/C=C/C(C)=C/C(=O)O)cc2c(c1Br)C(C)(C)CC=C2C(C)C [Compound A-170, (2E,4E,6E)-7-(4-Bromo-3-ethoxy-8-isopropyl-5,5-dimethyl-5,6-dihydro-naphthalen-2-yl)-6-fluoro-3-methyl-nona-2,4,6-trienoic acid] | 0.0035 µM | 8% | – | – | 0.0004 µM | 53% | 0.056 µM | 0.507 µM |
| CCOc1cc2c(cc1\C(CC)=C(F)/C=C/C(C)=C/C(=O)O)C(C(C)(C)C)=CCC2(C)C [Compound A-83, (2E,4E,6E)-7-(8-tert-Butyl-3-ethoxy-5,5-dimethyl-5,6-dihydronaphthalen-2-yl)-6-fluoro-3-methyl-nona-2,4,6-trienoic acid] | 0.031 µM | 12% | 0.261 µM | 0.698 µM | 0.002 µM | 7% | – | – |
| CC/C(=C/C=C/C(C)=C/C(=O)O)c1cc2c(cc1OC)OC(C)(C)C=C2C(C)C [Compound 44, 7-(4-Isopropyl-7-methoxy-22-dimethyl-2H-chromen-6-yl)-3-methyl-nona-2E,4E,6Z-trienoic acid] | 0.075 µM | 25% | 0.617 µM | 3.5 µM | 0.0004 µM | 97% | – | – |
| CCOc1cc2c(cc1\C(C)=C(F)/C=C/C(C)=C/C(=O)O)C(C(C)(C)C)=CCC2(C)C [Compound A-82, (2E,4E,6E)-6-Fluoro-3-(4,4-dimethyl-6-ethoxy-1-tert-butyl-3,4 dihydronaphthalen-7-yl)-3-methyl-2,4,6-octa-trienoic acid] | 0.17 µM | 9% | 0.4 µM | 1.4 µM | 0.002 µM | 31% | – | – |
| CCOc1c(\C(=C(F)/C=C/C(C)=C/C(=O)O)C(C)C)cc2c(c1Br)C(C)(C)CC=C2C(C)C [Compound A-171, (2E,4E,6E)-7-(4-Bromo-3-ethoxy-8-isopropyl-5,5-dimethyl-5,6-dihydro-naphthalen-2-yl)-6-fluoro-3.8-dimethyl-nona-2.4,6-trienoic acid] | 0.002 µM | 12% | – | – | 0.002 µM | 16% | 0.037 µM | 0.272 µM |
| CC/C(=C(F)/C=C/C(C)=C/C(=O)O)c1cc2c(cc1OC)OC(C)(C)C=C2C(C)(C)C [Compound 131, 7-(4-tert-Butyl-7-methoxy-2,2-dimethyl-2H-chromen-6-yl)-6-fluoro-3-methyl-nona-2E,4E,6E-trienoic acid] | 0.116 µM | 13% | 0.843 µM | 3.3 µM | 0.008 µM | 53% | – | – |
| CCOc1cc2c(cc1\C(=C/C=C/C(C)=C/C(=O)O)CC)C(C)=CCC2(C)C [Compound A-16, 7-(3-Ethoxy-5,5,8-trimethyl-5,6-dihydronaphthalen-2-yl)-3-methyl-nona-2E,4E,6Z-trienoic acid] | 0.242 µM | 21% | 0.61 µM | 3.8 µM | 0.032 µM | 26% | – | – |
| COc1c(\C(C)=C/C=C/C(C)=C/C(=O)O)cc2c(c1Cl)OC(C)(C)C=C2C(C)C [Compound 49, 7-(8-Chloro-4-isopropyl-7-methoxy-2,2-dimethyl-2H-chromen-6-y)-3-methyl-octa-2E,4E,6Z-trienoic acid] | 0.132 µM | 12% | 4.1 µM | > 10 µM | 0.0003 µM | 97% | – | – |
